pIC50, pKd: −log10 of the molar value.
What was measured:
[1] = system: Hela; experiment: VEPEP-5 mediated delivery of small hydrophobic molecules, inhibition of proliferation; format: cell-based; settings: Homo sapiens, free drug without carrier
Description: (§1) VEPEP-5 peptides (Short-6, Short-7 and Short 11) have been used for the delivery of different small hydrophobic molecules including doxorubicin and porphyrin on different cell lines including primary cell lines and challenging cell lines. VEPEP-5 peptides form stable particles with small aromatic molecules (table 2). Effect of VEPEP-5 mediated delivery of doxorubicin and porphyrin have been investigated on cancer cell viability. […] The impact of carrier peptides to improve cellular uptake of small molecule drugs was estimated by following inhibition of proliferation of cancer cells.

[2] = system: MCF7; experiment: as above; format: cell-based; settings: Homo sapiens, free drug without carrier
Description: as §1

[3] = system: Hela; experiment: VEPEP-5 mediated delivery of C4 peptide (targeting cdk2/cyclin A), cell proliferation; format: cell-based, Human; settings: VEPEP-5 (Short-6, Short-7 and Short 11) mediated delivery
Protocol: (§2) Adherent HS68 fibroblasts, HeLa, PC3, Jurkat, CEM-SS and U2OS MCF-7 cell lines (from American Type Culture Collection (ATCC)), as well as MEF and PBMC were cultured in Dulbecco's Modified Eagle's Medium supplemented with 2 mM glutamine, 1% antibiotics (streptomycin 10,000 μg/ml, penicillin, 10,000 IU/ml) and 10% (w/v) foetal calf serum (FCS), at 37° C. in a humidified atmosphere containing 5% CO2. Stock solutions of VEPEP-5/peptide particles were prepared by complexing 1 μM peptide with VEPEP-5 peptides at a molar ratio of 1/20 for 30 min at 37° C. Lower concentrations of VEPEP-5-carrier/peptide (from 500 nM to 1 μM) were obtained by serial dilution of the stock complexes in PBS, in order to preserve the same VEPEP-5-carrier/peptide ratio. 150 000 cells seeded in a 35 mm dish the day prior transfection, were grown to 60% confluence and overlaid with 200 μl of preformed complexes, incubated for 3-5 min, then 400 μl of DMEM were added. After 30 min. incubation at 37° C., 1 ml of fresh DMEM containing 16% foetal calf serum (FCS) was added in order to reach a final FCS concentration of 10%, without removing the overlay of VEPEP-5/peptide complexes. Cells were returned to the incubator for 24 hrs. For CDK2 derived peptides cell proliferation was monitored after 24 and 48 hrs. Data reported are an average of 3 or 4 distinct experiments. […]

[4] = system: MCF7; experiment: as above; format: cell-based, Human; settings: VEPEP-5 (Short-6, Short-7 and Short 11) mediated delivery
Protocol: as §2

[5] = system: Cyclin B1 protein level; experiment: VEPEP-5 mediated delivery of PNA antisense, Cyclin B1 knockdown; format: cell-based, Human; settings: controls: free PNA; scrambled PNA complexed with Short-6 and Short-11
Description: VEPEP-5 (Short-6, Short-7 and Short 11) peptides have been used for the delivery of nucleic acid analog (PNA and morpholino) into different cell lines, including primary cell lines and challenging cell lines. Uptake was monitored by following biological response (Cyclin B1 knockdown). We then have applied Short-6, Short-7 and Short 11 for the delivery of PNA antisense targeting Cyclin B1 as previously described by Morris et al..

[6] = Fluorescence titration, VEPEP-5/SHM binding: doxorubicin; settings: cargo Doxorubicin
Protocol: (§3) Fluorescence experiments were performed on a PTI spectrofluorimeter at 25° C. in a NaCl 154 mM buffer. Intrinsic Trp-fluorescence of VEPEP-5 was excited at 290 nm and emission spectrum was recorded between 310 and 400 nm, with a spectral band-pass of 2 and 8 nm for excitation and emission, respectively. FITC-fluorescence of labelled-peptide was excited at 492 nm and emission recorded between 500 and 580 nm. For […]/peptide interaction, 0.5 μM of FITC-labelled peptide was titrated by increasing concentrations of VEPEP-5. All measurements were corrected for the dilution and curve fitting were performed by using Grafit software (Erithacus).
(§4) VEPEP-5 peptides also form stable particles with small aromatic molecules including doxorubicin, porphyrin and charges molecules including nucleotide, nucleoside and peptide-analog of nucleic acids or fluorescent dyes (FIG. 1). The dissociation constant for small hydrophobic molecule ranges between 0.05 to 0.1 μM, depending on the nature of the dyes and of the peptides (Table 2).

[7] = Fluorescence titration, VEPEP-5/SHM binding: porphyrin; settings: cargo porphyrin
Protocol: as §3, §4

[8] = Fluorescence titration, VEPEP-5/SHM binding: FAM-guanosine; settings: cargo FAM-guanosine
Protocol: as §3, §4

[9] = system: MEF; experiment: VEPEP-5 mediated delivery of fluorescent labelled peptide (microscopy/FACS); format: cell-based, Mouse; settings: % of the cells
Protocol: (§5) Adherent HS68 fibroblasts, HeLa, PC3, Jurkat, CEM-SS and U2OS MCF-7 cell lines (from American Type Culture Collection (ATCC)), as well as MEF and PBMC were cultured in Dulbecco's Modified Eagle's Medium supplemented with 2 mM glutamine, 1% antibiotics (streptomycin 10,000 μg/ml, penicillin, 10,000 IU/ml) and 10% (w/v) foetal calf serum (FCS), at 37° C. in a humidified atmosphere containing 5% CO2. Stock solutions of VEPEP-5/peptide particles were prepared by complexing 1 μM peptide with VEPEP-5 peptides at a molar ratio of 1/20 for 30 min at 37° C. Lower concentrations of VEPEP-5-carrier/peptide (from 500 nM to 1 μM) were obtained by serial dilution of the stock complexes in PBS, in order to preserve the same VEPEP-5-carrier/peptide ratio. 150 000 cells seeded in a 35 mm dish the day prior transfection, were grown to 60% confluence and overlaid with 200 μl of preformed complexes, incubated for 3-5 min, then 400 μl of DMEM were added. After 30 min. incubation at 37° C., 1 ml of fresh DMEM containing 16% foetal calf serum (FCS) was added in order to reach a final FCS concentration of 10%, without removing the overlay of VEPEP-5/peptide complexes. Cells were returned to the incubator for 24 hrs. For CDK2 derived peptides cell proliferation was monitored after 24 and 48 hrs. Data reported are an average of 3 or 4 distinct experiments.
(§6) VEPEP-5 peptides (Short-6, Short-7 and Short 11) have been used for the delivery of different peptides into different cell lines, including primary cell lines, stem cell lines and challenging cell lines. Peptide delivery was monitored using three approaches, fluorescence spectroscopy and monitoring biological responses (anti proliferation)
(§7) 1—Fluorescent labelled peptide was visualized in the different cell lines using fluorescence microscopy or FACS sorting (Table 3). In most of the cell lines, the uptake of Cy-5 labelled peptides is more than 70% of the cells

[10] = system: CEM-SS; experiment: as above; format: cell-based, Human; settings: % of the cells
Protocol: as §5, §6, §7

[11] = system: HS-68; experiment: as above; format: cell-based, Human; settings: HS-68, % of the cells
Protocol: as §5, §6, §7

[12] = system: Hela; experiment: as above; format: cell-based, Human; settings: % of the cells
Protocol: as §5, §6, §7

[13] = system: MCF7; experiment: as above; format: cell-based, Human; settings: MCF7, % of the cells
Protocol: as §5, §6, §7

[14] = system: PBMC; experiment: as above; format: cell-based, Human; settings: % of the cells
Protocol: as §5, §6, §7

[15] = system: U2OS; experiment: as above; format: cell-based, Human; settings: % of the cells
Protocol: as §5, §6, §7

[16] = system: MEF; experiment: VEPEP-5 mediated delivery of proteins (fluorescence/FACS); format: cell-based, Mouse; settings: % of the cells
Protocol: as §5
(§8) VEPEP-5 have been used for the delivery of different proteins into different cell lines, including primary cell lines, stem cell lines and challenging cell lines. Protein uptake was monitored using fluorescence spectroscopy and FACS analysis. GFP/RFP or Fluorescent labelled proteins were visualized in the different cell lines using fluorescence microscopy or FACS sorting (Table 5). In most of the cell lines, the uptake of RFP; GFP, Cy-5 labelled proteins is more than 50% of the cells.

[17] = system: CEM-SS; experiment: as above; format: cell-based, Human; settings: % of the cells
Protocol: as §5, §8

[18] = system: HS-68; experiment: as above; format: cell-based, Human; settings: HS-68, % of the cells
Protocol: as §5, §8

[19] = system: Hela; experiment: as above; format: cell-based, Human; settings: % of the cells
Protocol: as §5, §8

[20] = system: Jurkat; experiment: as above; format: cell-based, Human; settings: % of the cells
Protocol: as §5, §8

[21] = system: MCF7; experiment: as above; format: cell-based, Human; settings: MCF7, % of the cells
Protocol: as §5, §8

[22] = system: U2OS; experiment: as above; format: cell-based, Human; settings: % of the cells
Protocol: as §5, §8

[23] = system: HeLa and U2OS cells; experiment: Toxicity of VEPEP-5 particles by MTT assay; format: cell-based, Human
Protocol: Cytotoxic response was measured 24 hr later by colorimetric MTT assay (Sigma, Germany), respectively. […] Results correspond to the average of 3 separate experiments.

Binding, Doxorubicin [6] | Binding, porphyrin [7] | pKd [7] | Binding, FAM-guanosine [8] | Compound | Efficiency (uptake of fluorescent labelled peptide) [9] | Efficiency (uptake of fluorescent labelled peptide) [10] | Efficiency (uptake of fluorescent labelled peptide) [11] | Efficiency (uptake of fluorescent labelled peptide) [12] | Efficiency (uptake of fluorescent labelled peptide) [13] | Efficiency (uptake of fluorescent labelled peptide) [14] | Efficiency (uptake of fluorescent labelled peptide) [15] | uptake of RFP; GFP, Cy-5 labelled proteins [16] | uptake of RFP; GFP, Cy-5 labelled proteins [17] | uptake of RFP; GFP, Cy-5 labelled proteins [18] | uptake of RFP; GFP, Cy-5 labelled proteins [19] | uptake of RFP; GFP, Cy-5 labelled proteins [20] | uptake of RFP; GFP, Cy-5 labelled proteins [21] | uptake of RFP; GFP, Cy-5 labelled proteins [22] | toxicity (MTT) ([23]; levels up to 200 nM) | toxicity (MTT) ([23]; maximum concentration of 1 μM) | further results
yes | yes | 6.15 | yes | X1RSWFRLWFR [Short 11, X1 is beta-A or S; N-terminus acetylated, C-terminal cysteamide] | 70% | 70% | 80% | 69% | 58% | 78% | 55% | 60% | 65% | 70% | 60% | 78% | 62% | 71% | No toxicity | mild toxicity | –
yes | yes | 6.30 | yes | X1WFRLWFRLR [Short 7, X1 is beta-A or S; N-terminus acetylated, C-terminal cysteamide] | 71% | 75% | 78% | 70% | 75% | 80% | 71% | 65% | 60% | 80% | 80% | 70% | 75% | 80% | No toxicity | mild toxicity | pKd [6]: 7.15

More lines, now with the values behind:

Compound | Binding, Doxorubicin [6] | Binding, porphyrin [7] | pKd [7] | Binding, FAM-guanosine [8] | Efficiency (uptake of fluorescent labelled peptide) [9] | Efficiency (uptake of fluorescent labelled peptide) [10] | Efficiency (uptake of fluorescent labelled peptide) [11] | Efficiency (uptake of fluorescent labelled peptide) [12] | Efficiency (uptake of fluorescent labelled peptide) [13] | Efficiency (uptake of fluorescent labelled peptide) [14] | Efficiency (uptake of fluorescent labelled peptide) [15] | uptake of RFP; GFP, Cy-5 labelled proteins [16] | uptake of RFP; GFP, Cy-5 labelled proteins [17] | uptake of RFP; GFP, Cy-5 labelled proteins [18] | uptake of RFP; GFP, Cy-5 labelled proteins [19] | uptake of RFP; GFP, Cy-5 labelled proteins [20] | uptake of RFP; GFP, Cy-5 labelled proteins [21] | uptake of RFP; GFP, Cy-5 labelled proteins [22] | toxicity (MTT) ([23]; levels up to 200 nM) | toxicity (MTT) ([23]; maximum concentration of 1 μM) | further results
C1=Cc2cc3ccc(cc4nc(cc5ccc(cc1n2)[nH]5)C=C4)[nH]3 [Porphyrin, porphyrin] | – | – | – | – | – | – | – | – | – | – | – | – | – | – | – | – | – | – | – | – | pIC50 [1]: 4.60; pIC50 [2]: 4.77
KKQVRMAHLVLT (synthesized peptide C4) [Short C4] | – | – | – | – | – | – | – | – | – | – | – | – | – | – | – | – | – | – | – | – | peptide C4 concentration sufficient to block proliferation [3]: 100 nM; peptide C4 concentration sufficient to block proliferation [4]: 100 nM
TGC CAT CAA GCT TAG AGG-^CY5 (antisense TGCCATCAAGCTTAGAGG; all peptide nucleic acid (PNA); further chemistry not fully specified) [free PNA, PNA antisense targeting Cyclin B1, without carrier] | – | – | – | – | – | – | – | – | – | – | – | – | – | – | – | – | – | – | – | – | change in Cyclin B1 level [5]: no change
X1WWRLWWRLR [Short 6, X1 is beta-A or S; N-terminus acetylated, C-terminal cysteamide] | yes | yes | 6.40 | yes | 64% | 74% | 89% | 45% | 59% | 78% | 68% | 65% | 55% | 78% | 55% | 60% | 70% | 64% | No toxicity | mild toxicity | pKd [8]: 7.22

From patent US10118944B2, “Cell penetrating peptides for intracellular delivery of molecules” (AADIGEN, LLC, priority 2012, dated 2018)
